In US12037324B2, “Biarylmethyl heterocycles” (Université de Montréal, priority 2016, dated 2024):

Assays:
hAT1R [1] = molecular target: T1, hAT1R (Homo sapiens, UniProt P30556); test: cell-based
T1 sequence (P30556 1-359): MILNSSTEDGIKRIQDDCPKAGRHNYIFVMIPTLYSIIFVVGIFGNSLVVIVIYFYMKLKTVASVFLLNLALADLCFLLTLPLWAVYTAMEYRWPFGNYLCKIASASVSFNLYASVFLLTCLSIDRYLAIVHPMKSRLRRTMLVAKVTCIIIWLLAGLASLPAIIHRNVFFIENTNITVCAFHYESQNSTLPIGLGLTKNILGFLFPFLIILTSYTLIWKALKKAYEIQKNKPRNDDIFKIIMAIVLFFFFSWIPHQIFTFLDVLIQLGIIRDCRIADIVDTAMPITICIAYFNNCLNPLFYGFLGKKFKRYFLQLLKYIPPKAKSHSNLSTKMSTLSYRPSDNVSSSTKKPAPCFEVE

hAT1R [2] = molecular target: T1, hAT1R; test: BRET β-arrestin2 biosensor assay, higher receptor expression (hAT1R 5 ng/well), HEK293 cells; type: cell-based; conditions: for EC50: High AT1R Expression
AGTR1 [3] = molecular target: T2, AGTR1 (Homo sapiens, UniProt P30556); test: DiscoveRx β-arrestin2 recruitment assay (enzyme complementation, Pathunter CHO-K1 AGTR1 β-arrestin cell line); type: cell-based; conditions: DiscoveRx β-arrestin2 recruitment; for DiscoveRx β-arrestin2 Ymax (%): maximal response
T2 construct: host or cells: Pathunter CHO-K1 AGTR1 β-arrestin cell line (CHO-K1)
T2 sequence (P30556 1-359): T1 sequence (P30556 1-359)
Summary of the method: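 CHO-K1 cells expressing AGTR1 with β-arrestin2 enzyme-complementation reporter, plated 14-16 h ahead in 1% serum medium, then exposed to compounds for 90 min at 37° C. Chemiluminescence read after 1 h detection. EC50 (agonist) or IC50 (antagonist) from 4-parameter logistic fit; activity as percentage of All maximal effect.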

AGTR1 [4] = molecular target: T2, AGTR1; test: DiscoveRx IP1 accumulation assay (HTRF), agonist mode, Pathunter CHO-K1 AGTR1 β-arrestin cell line; type: cell-based; conditions: for EC50: read-out: IP-1 EC50
Summary of the method: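 Agonist mode in CHO-K1 AGTR1 β-arrestin cells plated 14-16 h before; compounds at varying concentrations for 90 min at 37° C, IP1 accumulation read by HTRF (D2-conjugate and anti-IP1 cryptate, 20 min room temperature). EC50 from 4-parameter logistic fit; activity given as percentage of maximal AII effect.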

hAT1R [5] = molecular target: T1, hAT1R; test: cell-based; conditions: agonist mode
[6] = Low AT1R Expression, read-out: BRET β-Arrestin2 Low AT1R Expression EC50

SMILES	BRET β-Arrestin2 Low AT1R Expression Ymax (%) (hAT1R [1]; Low AT1R Expression)	EC50 (hAT1R [1]; [6]) [nM]	BRET β-Arrestin2 High AT1R Expression Ymax (%) (hAT1R [2])	EC50 (hAT1R [2]) [nM]	EC50 (AGTR1 [3]) [nM]	DiscoveRx β-arrestin2 Ymax (%) (AGTR1 [3])	IP-1 Ymax (%) (AGTR1 [4])	EC50 (AGTR1 [4]) [nM]	EC50 (hAT1R [1]; section of the 42nd table ending at r951, example numbering restarts after the DiscoveRx section, read-out: β-arrestin2 EC50) [nM]	BRET P63 Ymax (hAT1R [5]) [%]	EC50 (hAT1R [5]; read-out: BRET P63 EC50) [nM]
CCCCC1=NC2(CCOC2)C(=O)N1Cc1ccc(-c2cc(-c3ccccc3F)ccc2-c2nnn[nH]2)cc1 (single isomer, unassigned) [Example 148]	17.7	141	72.8	90.4	103	34.8	6.1				
CCCCC1=NC2(CCOC2)C(=O)N1Cc1ccc(-c2cc(-c3ccccc3F)ccc2-c2nnn[nH]2)cc1 (single isomer, unassigned) [Example 149]	42.1	82.7	85.7	24.1	38.9	55.2	7.5	143			
CC1=NC2(CCOC2)C(=O)N1Cc1ccc(-c2cc(-c3ccccc3)ccc2-c2nn[nH]n2)cc1 (single isomer, unassigned) [Example 174, 3-((6′-(2H-tetrazol-5-yl)-[1,1′:3′,1″-terphenyl]-4-yl)methyl)-2-methyl-7-oxa-1,3-diazaspiro[4.4]non-1-en-4-one]									634	10.3	770
CCc1nc2c(C)cc(C)nc2n1Cc1ccc(-c2cc(-c3ccccc3OC(F)(F)F)ccc2-c2nn[nH]n2)cc1 [Example 1]	61.8	29.5	86.9	7.2	15.5	44.1	18.7	20.7			
CCc1nc2c(C)cc(C)nc2n1Cc1ccc(-c2cc(-c3ccccc3C(C)C)ccc2-c2nn[nH]n2)cc1 [Example 3]	30.6	24.2	79.6	14.9	21.2	22.9	29.9	45600			
CCc1nc2c(C)cc(C)nc2n1Cc1ccc(-c2cc(-c3ccccc3OC)ccc2-c2nn[nH]n2)cc1 [Example 5]	22.9	12.1	76.2	16	14.5	30.9	15.1	23.8			
CCc1nc2c(C)cc(C)nc2n1Cc1ccc(-c2cc(-c3ccc(C(=O)N(C)C)cc3)ccc2-c2nn[nH]n2)cc1 [Example 11]	16.9	35.3	79.2	22	9.9	36.3	3.8	17.8			
CCc1nc2c(C)cc(C)nc2n1Cc1ccc(-c2cc(-c3ccccc3F)ccc2-c2nn[nH]n2)cc1 [Example 19]	73.7	12.1	89.8	2.4	7.5	57.9	12.2	27.4			
CCc1nc2c(C)cc(C)nc2n1Cc1ccc(-c2cc(-c3cccnc3OC)ccc2-c2nn[nH]n2)cc1 [Example 24, 2-ethyl-3-((5′-(2-methoxypyridin-3-yl)-2′-(2H-tetrazol-5-yl)-[1,1′-biphenyl]-4-yl)methyl)-5,7-dimethyl-3H-imidazo[4,5-b]pyridine]	21.6	13.9	73.1	13.5	13.4	24.1	14.5	20.7			
CCc1nc2c(C)cc(C)nc2n1Cc1ccc(-c2cc(-c3cccc(OC)n3)ccc2-c2nn[nH]n2)cc1 [Example 29]	42.2	18.9	82.7	11.3	8.6	29.8	12.1	38.7			
CCc1nc2c(C)cc(C)nc2n1Cc1ccc(-c2cc(-c3ccccc3)ccc2C(=O)O)cc1 [Example 31, 4″-((2-ethyl-5,7-dimethyl-3H-imidazo[4,5-b]pyridin-3-yl)methyl)-[1,1′:3′,1″-terphenyl]-4′-carboxylic acid]	42.4	84.7	85.5	58.2	33.9	55.1	12.3	234			
